According to PMC8622623, “Histamine H3 Receptor Ligands—KSK-59 and KSK-73—Reduce Body Weight Gain in a Rat Model of Excessive Eating” (Pharmaceuticals, 2021):

How the values were obtained:
[1] = system: non-obese rats fed palatable diet; test: Spontaneous activity (RFID TraffiCage); type: in vivo, female Wistar rats; conditions: KSK compounds 10 mg/kg, vs control fed palatable diet; for spontaneous activity after chronic administration: 27th day, i.p.; for spontaneous activity after first administration: day 1, i.p.
Description: The spontaneous activity of rats was measured on the 1st and 27th day of the treatment with a special RFID-system—TraffiCage (TSE-Systems, Germany). The animals were subcutaneously implanted with transmitter identification (RFID), which enabled the presence and time spent in different areas of the cage to be counted and then the data were grouped in a special computer program.

female Wistar rats = test: Visceral illness via kaolin intake (pica behavior); type: in vivo; conditions: for kaolin clay intake: single i.p. 10 mg/kg b.w.; for kaolin clay intake / water intake (pica model): vs control group that received i.p. CuSO4; for kaolin intake: KSK compounds 10 mg/kg or bupropion/naltrexone, vs vehicle control and CuSO4 control
Description: The method was based on the works by Takeda et al. and Yamamoto et al. with minor modification. The experiment lasted for five days. In addition to free access to feed, animals had also free access to a white kaolin. For the first few days, the animals were accustomed to the presence of kaolin in their cages. […] Moreover, animals were weighed before the compounds administration and 24 h after.

[2] = Pharmacokinetics after single i.p. administration; type: in vivo; conditions: single i.p. 10 mg/kg; for AUC(0-inf) / Cmax / Tmax / CL/F / MRT / k el / Vd/F / half-life: ip; for AUC(0-inf): heading: AUC0-inf; for CL/F: read-out: CLS/F (clearance) (converted); for MRT: read-out: MRT (mean residence time); for k el: read-out: λz (terminal elimination rate constant) (converted); for Vd/F / half-life: rat, plasma; for Vd/F: n = 3, read-out: Vz/F (volume of distribution); for half-life: n = 3, read-out: t0.5λz (half-life) (converted)
Description: Six rats divided into two experimental groups were used in pharmacokinetic experiments. Three days before the experiment, rats’ jugular vein was cannulated allowing for the multiple blood sampling from the single animal. Investigated compounds suspended in 1% Tween 80 were administered i.p. at the single dose of 10 mg/kg. Blood samples (approximately 300 µL) were collected to Eppendorf tubes containing heparin at 5, 15, 30, 60, 120, 240 and 360 min after dosing. Plasma was harvested by centrifuging at 5000× g for 10 min and stored at −30 °C until bioanalysis.
Plasma concentrations of KSK-59 or KSK-73 were measured by liquid chromatography tandem mass spectrometry (LC-MS/MS) method. Samples (50 μL) were deproteinized at the ratio of 1:3 (v/v) with acetonitrile containing an internal standard (IS—pentoxifiline), briefly vortexed and then centrifuged for 10 min at the speed of 8000× g (Eppendorf miniSpin centrifuge). The supernatant was transferred into the autosampler vials and a sample volume of 10 μL was injected into LC-MS/MS system.
Chromatographic separation was carried out on XBridge™ C18 (3 × 50 mm, 5 µm, Waters, Dublin, Ireland) analytical column using the HPLC system Agilent 1100 (Agilent Technologies, Waldbronn, Germany). The mobile phase containing 0.1% formic acid in acetonitrile and in water was run at 0.3 mL/min in the gradient mode. Mass spectrometric detection was performed on an Applied Biosystems MDS Sciex (Concord, ON, Canada) API 2000 triple quadrupole mass spectrometer. Electrospray ionization (ESI) in the positive ion mode was used for ion production. The tandem mass spectrometer was operated at unit resolution in the selected reaction monitoring mode (SRM), monitoring the transitions of the protonated molecular ions m/z 382 to 107 for KSK-59, m/z 410 to 107 for KSK-73 and m/z 279 to 181 for IS. Data acquisition and processing were accomplished using the Applied Biosystems Analyst version 1.6 software. The calibration curves were constructed by plotting the ratio of the peak area of the studied compound to IS versus drug concentration and generated by weighted (1/x·x) linear regression analysis. The validated quantitation ranges were from 1 to 2000 ng/mL. Calculated accuracy and precision were within the ranges proposed by guidelines for bioanalytical methods validation (FDA, EMA). No significant matrix effect was observed and there were no stability related problems during the routine analysis of the samples.
Pharmacokinetic parameters were calculated by employing a non-compartmental approach, using Monolix version 2019R1 (Antony, France: Lixoft SAS, 2019) software. The area under the mean plasma concentration versus time curve extrapolated to infinity (AUC0-inf) was estimated using the log/linear trapezoidal rule. AUMC0-inf was estimated by calculation of total area under the first-moment curve by combining trapezoid calculation of AUMC0-t and extrapolated area. The mean residence time (MRT) was calculated from AUMC0-inf/AUC0-inf. The terminal rate constant (λz) was calculated by log-linear regression of the drug concentration data in the terminal phase and the terminal half-life (t1/2) were calculated as 0.693/λz. The clearance (CL/F) was estimated from the administered dose divided by AUC0-inf. The apparent volume of distribution during terminal phase (Vz/F) was calculated from (CL/F)/λz.

H3 histamine receptor = target: T1, H3 histamine receptor (Homo sapiens, UniProt Q9Y5N1); test: Aequoscreen intrinsic activity assay (antagonist dose-response); type: cell-based
T1 construct: host or cells: recombinant frozen ready-to-use cells
Description: Intrinsic activity studies were performed by two methods, Aequoscreen and Lance cAMP assays according to the manufacturer of the ready to use cells with stable expression of the H3 histamine receptor (Perkin Elmer, Waltham, MA, USA).
The Aequoscreen technology uses the recombinant cell lines with stable co-expression of apoaequorin and a GPCR as a system to detect activation of the receptor, following addition of an agonist, via the measurement of light emission. For measurement cells (frozen, ready to use) were thawed and resuspended in 10 mL of an assay buffer containing 5 μM of coelenterazine h. Then cells suspension was placed in a 10 mL Falcon tube, fixed onto a rotating wheel and incubated overnight at RT° in the dark. Cells were diluted with assay buffer to 5000 cells/20 µL. Agonistic ligands 2× (50 μL/well), diluted in assay buffer, were prepared in 1/2 area white polystyrene plates, and the 50 μL of cell suspension was dispensed on the ligands using the injector. The light emission was recorded for 20 s. Cells were incubated with antagonist for 15 min at RT°. Then 50 µL of agonist (3 × EC80 final concentration) was injected onto the mixture of cells and antagonist and the light emission was recorded for 20 s.

[3] = system: non-obese rats fed palatable diet; test: Plasma lipids, hormones, corticosterone, CRP and IL-6 at end of chronic experiment; type: in vivo, female Wistar rats; conditions: for plasma triglyceride levels: day 31, palatable feed + treatment, compared to rats fed standard feed
Description: On the 31st day of the experiment, 20 min after i.p. administration of heparin (5000 units/rat) and thiopental (70 mg/kg b.w.), blood was collected from the left carotid artery and then centrifuged at 600× g (15 min, 4 °C) in order to obtain the plasma. To determine total cholesterol, HDL-cholesterol, LDL-cholesterol or triglyceride levels in plasma, standard enzymatic and spectrophotometric tests (Biomaxima S.A. Lublin, Poland) were used. The ELISA Kit (Cayman Chemical, USA) assay was used to determine corticosterone levels in plasma. To determine IL-6, ghrelin, adiponectin, leptin and C-reactive protein levels in plasma, standard ELISA Kit (Bioassay Technology Laboratory, Shanghai, China) was used.

T1 sequence (Q9Y5N1 whole entry): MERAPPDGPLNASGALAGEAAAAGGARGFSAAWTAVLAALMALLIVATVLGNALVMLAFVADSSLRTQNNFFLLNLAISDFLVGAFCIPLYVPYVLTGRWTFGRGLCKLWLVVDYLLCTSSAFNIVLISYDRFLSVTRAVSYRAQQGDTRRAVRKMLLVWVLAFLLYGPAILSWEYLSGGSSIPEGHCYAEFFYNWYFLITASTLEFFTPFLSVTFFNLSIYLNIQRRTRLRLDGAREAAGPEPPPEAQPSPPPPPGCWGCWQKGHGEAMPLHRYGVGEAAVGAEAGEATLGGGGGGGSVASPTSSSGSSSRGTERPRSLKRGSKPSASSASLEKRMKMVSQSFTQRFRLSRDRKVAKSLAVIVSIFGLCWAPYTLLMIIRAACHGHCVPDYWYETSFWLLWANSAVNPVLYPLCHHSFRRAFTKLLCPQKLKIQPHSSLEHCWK

Row | SMILES | spontaneous activity after chronic administration [1] | spontaneous activity after first administration [1] | kaolin clay intake (female Wistar rats) | water intake (pica model) (female Wistar rats; single i.p., 24 h) | calorie intake (pica model) (female Wistar rats; single i.p., 24 h, vs vehicle control) | kaolin intake (female Wistar rats; single i.p., 24 h) | AUC(0-inf) ([2]; 10 mg/kg, rat plasma, n = 3) | Cmax ([2]; rat plasma, n = 3) | Tmax ([2]; rat plasma, n = 3) | CL/F ([2]; rat plasma, n = 3) | MRT ([2]; rat plasma, n = 3) | k el ([2]; rat plasma, n = 3) | time at which Cmax was reached (first sampling point) ([2]; rat plasma) | Vd/F ([2]; 10 mg/kg) | half-life ([2]; 10 mg/kg) | IC50 (H3 histamine receptor) | plasma triglyceride levels [3] | Vz/F (volume of distribution) ([2]; rat plasma, n = 3, 10 mg/kg) | t0.5λz (half-life) ([2]; rat plasma, n = 3, 10 mg/kg) | plasma adiponectin level ([3]; day 31, vs control rats fed palatable feed)
1 | CC(=O)c1ccc(OCCCCCCCCN2CCN(c3ccncc3)CC2)cc1.O=C(O)C(=O)O [KSK-73, 1-(4-((8-(4-(pyridin-4-yl)piperazin-1-yl)octyl)oxy)phenyl)ethan-1-one oxalate] | no such changes were observed | statistically significant decrease in spontaneous activity | consumed significantly less kaolin clay | lower water intake | consumed fewer calories | did not consume more kaolin | 888 ng·h/mL | 216 ng/mL | 4.98 min | 675 mL/min/kg | 4.2 h | 5.28e-05 s⁻¹ | 5 min | 216 L/kg | 3.7 h | 20.6 ± 4.5 nM | comparable to the ones observed in rats from the control group fed standard feed |  |  | 
2 | CC(=O)c1ccc(OCCCCCCN2CCN(c3ccncc3)CC2)cc1.O=C(O)C(=O)O [KSK-59, 1-(4-((6-(4-(pyridin-4-yl)piperazin-1-yl)hexyl)oxy)phenyl)ethan-1-one oxalate] | did not affect spontaneous activity | did not affect spontaneous activity | consumed significantly less kaolin clay | lower water intake |  | did not consume more kaolin | 538 ng·h/mL | 96 ng/mL | 4.98 min | 1120 mL/min/kg | 2.04 h | 0.000122 s⁻¹ | 5 min | 152 L/kg | 1.6 h | 3.31 ± 3.2 nM | statistically significantly higher | 152.22 L/kg | 1.58 h | Significantly lower level of adiponectin
